In US10227331B2 (priority 2015, dated 2019):

How the values were obtained:
IMP-1 = IMP-1 (Serratia marcescens, UniProt P52699); test: biochemical; type: biochemical; details: CCF2-FA substrate, 2 hours at 25° C; read-out: IMP-1 IC50
Outline: (§1)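 Fluorescence assay of metallo-β-lactamase activity using CCF2-FA, a cephalosporin-linked 7-hydroxycoumarin–fluorescein substrate. Inhibitor, enzyme and substrate were incubated together for 2 hours at 25° C. IC50 came from a 4-parameter fit of inhibition versus inhibitor concentration.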

NDM-1 = NDM-1 (Klebsiella pneumoniae, UniProt C7C422); test: biochemical; type: biochemical; details: CCF2-FA substrate, 2 hours at 25° C; read-out: NDM-1 IC50
Chain of NDM-1 (C7C422 whole entry, looked up, species assumed): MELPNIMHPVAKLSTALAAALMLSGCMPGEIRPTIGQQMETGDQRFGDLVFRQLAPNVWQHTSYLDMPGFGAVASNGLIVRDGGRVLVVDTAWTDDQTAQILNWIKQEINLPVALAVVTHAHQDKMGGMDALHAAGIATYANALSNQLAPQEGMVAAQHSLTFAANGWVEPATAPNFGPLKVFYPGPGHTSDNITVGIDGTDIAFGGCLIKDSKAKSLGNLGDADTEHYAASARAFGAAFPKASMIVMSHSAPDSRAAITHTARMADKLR
Outline: as §1

VIM-1 = VIM-1 (Pseudomonas aeruginosa (strain ATCC 15692 / DSM 22644 / CIP 104116 / JCM 14847 / LMG 12228 / 1C / PRS 101 / PAO1), UniProt A0A0F7KYQ8); test: biochemical; details: CCF2-FA substrate, 2 hours at 25° C
Outline: as §1

[1] = system: Escherichia coli expressing NDM-1 (CLB30005, CLB30016); type: cell-based; details: with imipenem 1 μg/ml, 95% inhibition of bacterial growth; for Escherichia coli MITC95: NDM-1 (CLB30016)
Outline: (§2)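 Clinical strains grown overnight on blood agar, then diluted 1:100 in 1.1× CAMHB and exposed to test compound with imipenem at 1 μg/ml. Incubation was 22–24 h at 35° C; growth was read by absorbance to find the compound concentration restoring imipenem susceptibility.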

[2] = system: Klebsiella pneumoniae expressing VIM-1 (IHMA599644); type: cell-based; details: with imipenem 1 μg/ml, 95% inhibition of bacterial growth; for Klebsiella pneumoniae MITC95: VIM-1 (IHMA599644)
Outline: as §2

[3] = system: Serratia marcescens expressing IMP-1 (CL5741); type: cell-based; details: with imipenem 1 μg/ml, 95% inhibition of bacterial growth; for Serratia marcescens MITC95: IMP-1 (CL5741)
Outline: as §2

[4] = system: P. aeruginosa expressing IMP-1, efflux+ (MB9798); type: cell-based, Pseudomonas aeruginosa; details: for P. aeruginosa expressing IMP-1, efflux+ (MB9798) MITC95: imipenem at 2 μg/mL, in the presence of a class A, C, D serine β-lactamase inhibitor closely related to relebactam; for Efflux ratio: ratio MITC95 PA_9798/MITC95 PA_9799
Description: (§3) The strain background is Pseudomonas aeruginosa PAO1.

[5] = system: P. aeruginosa expressing IMP-1, efflux− (MB9799); test: Efflux: concentration of MBL inhibitor which restores susceptibility to imipenem; type: cell-based, Pseudomonas aeruginosa; details: imipenem at 2 μg/mL, in the presence of a class A, C, D serine β-lactamase inhibitor closely related to relebactam
Description: as §3

Chain of IMP-1 (P52699 whole entry, looked up, species assumed): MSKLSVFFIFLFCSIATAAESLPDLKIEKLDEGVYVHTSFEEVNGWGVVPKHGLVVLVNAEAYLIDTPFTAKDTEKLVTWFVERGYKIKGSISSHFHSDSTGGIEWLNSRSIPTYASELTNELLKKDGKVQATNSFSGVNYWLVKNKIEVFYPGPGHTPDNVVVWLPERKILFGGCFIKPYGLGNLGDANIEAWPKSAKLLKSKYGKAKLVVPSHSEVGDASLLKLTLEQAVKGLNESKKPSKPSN

Row | Structure (SMILES) | IC50 (IMP-1) | IC50 (NDM-1) | IC50 (VIM-1) | Escherichia coli expressing NDM-1 (CLB30016) MITC95 [1] | Klebsiella pneumoniae expressing VIM-1 (IHMA599644) MITC95 [2] | Serratia marcescens expressing IMP-1 (CL5741) MITC95 [3] | P. aeruginosa expressing IMP-1, efflux+ (MB9798) MITC95 [4] | Efflux ratio [4] | P. aeruginosa expressing IMP-1, efflux− (MB9799) MITC95 [5] | Escherichia coli MITC95 [1] | Klebsiella pneumoniae MITC95 [2] | Serratia marcescens MITC95 [3]
1 | N#Cc1cccc(-c2ccc(S(=O)(=O)C3CNC3)c(S(N)(=O)=O)c2-c2nn[nH]n2)c1N [Example 196, 2′-amino-4-(azetidin-3-ylsulfonyl)-3′-cyano-2-(2H-tetrazol-5-yl)-[1,1′-biphenyl]-3-sulfonamide] | 1.54 nM | 0.315 nM | 0.233 nM | 0.7813 µM | 1.563 µM | 1.563 µM | 12.5 µM | 16.00 | 0.7813 µM |  |  | 
2 | NCCS(=O)(=O)c1ccc(-c2ccc3oc(N)nc3c2)c(-c2nn[nH]n2)c1S(N)(=O)=O [Example 77, 3-(2-aminobenzo[d]oxazol-5-yl)-6-(2-aminoethylsulfonyl)-2-(2H-tetrazol-5-yl)benzenesulfonamide] | 1.13 nM | 1.05 nM | 0.385 nM | 0.7813 µM | 1.563 µM | 1.563 µM | 6.25 µM | 8.00 | 0.7813 µM |  |  | 
3 | NS(=O)(=O)c1c(S(=O)(=O)C2CNC2)ccc(-c2ccc(C3CCNCC3)cc2)c1-c1nn[nH]n1 [Example 6] | 0.212 nM | 0.307 nM | 0.195 nM | 0.7813 µM | 1.563 µM | 1.563 µM | 0.7813 µM | 1.00 | 0.7813 µM |  |  | 
4 | NCCc1nc2c(-c3ccc(S(=O)(=O)CCN)c(S(N)(=O)=O)c3-c3nn[nH]n3)cccc2[nH]1 [Example 306, 3-(2-(2-aminoethyl)-1H-benzo[d]imidazol-4-yl)-6-((2-aminoethyl)sulfonyl)-2-(2H-tetrazol-5-yl) benzenesulfonamide] | 2.84 nM | 0.848 nM | 0.374 nM |  |  |  | 1.563 µM | 2.00 | 0.7813 µM | 0.7813 µM | 1.563 µM | 0.7813 µM
5 | NCCS(=O)(=O)c1ccc(-c2cccc(N3CCS(=O)(=O)CC3)c2)c(-c2nnn[nH]2)c1S(N)(=O)=O.O=C(O)C(F)(F)F [Example 158, 2-((3′-(1,1-dioxidothiomorpholino)-3-sulfamoyl-2-(1H-tetrazol-5-yl)-[1,1′-biphenyl]-4-yl)sulfonyl)ethanaminium 2,2,2-trifluoroacetate] | 6.27 nM | 16.6 nM | 7.08 nM | 12.5 µM | 25 µM | 12.5 µM | 200 µM | 64.00 | 3.125 µM |  |  | 
6 | NS(=O)(=O)c1c([S+]([O-])C2CCNCC2)ccc(-c2ccc(C3CCNCC3)cc2)c1-c1nnn[nH]1 (stereo not drawn) [Example 227, 4′-(piperidin-4-yl)-4-(piperidin-4-ylsulfinyl)-2-(1H-tetrazol-5-yl)-[1,1′-biphenyl]-3-sulfonamide] | 5.9 nM | 1.95 nM | 1.18 nM | 3.125 µM | 6.25 µM | 6.25 µM | 3.125 µM | 2.00 | 1.563 µM |  |  | 
7 | Cc1nnc2ccc(-c3ccc(S(=O)(=O)CCN)c(S(N)(=O)=O)c3-c3nnn[nH]3)cn12.O=C(O)C(F)(F)F [Example 133, 2-((4-(3-methyl-[1,2,4]triazolo[4,3-a]pyridin-6-yl)-2-sulfamoyl-3-(1H-tetrazol-5-yl)phenyl)sulfonyl)ethanaminium 2,2,2-trifluoroacetate] | 29.4 nM | 15.6 nM | 0.968 nM | 6.25 µM | 6.25 µM | 6.25 µM | 200 µM | 64.00 | 3.125 µM |  |  | 
8 | NCCS(=O)(=O)c1ccc(-c2cnc(N)c(F)c2)c(-c2nnn[nH]2)c1S(N)(=O)=O.O=C(O)C(F)(F)F [Example 168, 2-((4-(6-amino-5-fluoropyridin-3-yl)-2-sulfamoyl-3-(1H-tetrazol-5-yl)phenyl)sulfonyl)ethanaminium 2,2,2-trifluoroacetate] | 2.02 nM | 2.5 nM | 0.515 nM | 1.563 µM | 6.25 µM | 3.125 µM | 6.25 µM | 4.00 | 1.563 µM |  |  | 
9 | NS(=O)(=O)c1c(S(=O)(=O)C2CNC2)ccc(-c2cncnc2)c1-c1nnn[nH]1.O=C(O)C(F)(F)F [Example 110, 3-((4-(pyrimidin-5-yl)-2-sulfamoyl-3-(1H-tetrazol-5-yl)phenyl)sulfonyl)azetidin-1-ium 2,2,2-trifluoroacetate] | 13.2 nM | 4.79 nM | 3.47 nM | 1.563 µM | 3.125 µM | 1.563 µM | 25 µM | 15.99 | 1.563 µM |  |  | 
10 | NCCS(=O)(=O)c1ccc(-c2cccc3[nH]c(CC(N)C(=O)O)nc23)c(-c2nn[nH]n2)c1S(N)(=O)=O (stereo not drawn) [Example 330, 2-amino-3-(4-(4-((2-aminoethyl)sulfonyl)-3-sulfamoyl-2-(2H-tetrazol-5-yl)phenyl)-1H-benzo[d]imidazol-2-yl)propanoic acid] | 3.61 nM | 0.675 nM | 0.639 nM |  |  |  | 6.25 µM | 2.00 | 3.125 µM | 3.125 µM | 6.25 µM | 1.563 µM
11 | Nc1nc2c(-c3ccc(S(=O)(=O)C4CNC4)c(S(N)(=O)=O)c3-c3nn[nH]n3)cccc2n1CCO [Example 373, 3-(2-Amino-1-(2-hydroxyethyl)-1H-benzo[d]imidazol-4-yl)-6-(azetidin-3-ylsulfonyl)-2-(2H-tetrazol-5-yl)benzenesulfonamide] | 0.409 nM | 0.139 nM | 0.248 nM |  |  |  | 1.563 µM | 1.00 | 1.563 µM | 0.7813 µM | 3.125 µM | 1.563 µM
